Data from patent publication US12648574B2 (priority 2019, dated 2026).
Where two headings read alike, the source gives them in different places.

Tests used:
[1] = system: X. fastidiosa subsp. fastidiosa (IVIA strain 5387.2); type: cell-based, Xylella fastidiosa subsp. fastidiosa; conditions: ampicillin 100 mg/l
[2] = system: Xylella fastidiosa subsp. multiplex IVIA 5901.2; type: cell-based; conditions: for mean survival: ampicillin 100 mg/L
[3] = system: Xylella fastidiosa subsp. fastidiosa strain 5387.2 in almond plants of the Avijor variety; type: in vivo; conditions: ampicillin 100 mg/L
[4] = system: Xylella fastidiosa subsp. fastidiosa IVIA 5387.2; type: cell-based; conditions: for mean survival: streptomycin 100 mg/L
[5] = system: Xanthomonas arboricola pv. pruni CFBP 5563; type: cell-based
[6] = system: Xylella fastidiosa subsp. pauca DD1 CODiRo; type: cell-based; conditions: streptomycin 100 mg/L
[7] = system: Xanthomonas arboricola pv. pruni CFBP 5563; type: cell-based; remark: listed apart in the source
[8] = system: Xanthomonas fragariae 349-9^a; type: cell-based
[9] = system: Xanthomonas axonopodis pv. vesicatoria IVIA 2133.2; type: cell-based; conditions: 2 h
[10] = system: Pseudomonas syringae pv. syringae EPS 94; type: cell-based
[11] = system: Xylella fastidiosa subsp. fastidiosa IVIA 5387.2; type: cell-based; conditions: streptomycin 100 mg/L
[12] = system: 11 phytopathogenic strains; type: cell-based
[13] = system: Xylella fastidiosa subsp. multiplex IVIA 5901.2; type: cell-based; conditions: streptomycin 100 mg/L
[14] = system: Erwinia amylovora EPS 101; type: cell-based
[15] = system: EPS101 strain of E. amylovora in pear plants of the Conference variety; parameters: species or system Erwinia amylovora; conditions: in vivo
[16] = system: X. fastidiosa subsp. pauca strain CoDiRO (DD1); type: cell-based, Xylella fastidiosa subsp. pauca; conditions: streptomycin 100 mg/L
[17] = system: Ralstonia solanacearum CECT 125; type: cell-based; conditions: streptomycin 100 mg/L
[18] = system: Xanthomonas axonopodis pv. vesicatoria IVIA 2133.2; type: cell-based
[19] = system: Erwinia amylovora EPS 101; type: cell-based; remark: listed apart in the source
[20] = 31 days after application, qPCR of sap

**Q.** `CC1(C)S[C@@H]2[C@H](NC(=O)[C@H](N)c3ccccc3)C(=O)N2[C@H]1C(=O)O` [ampicillin] was tested. Which median survival ([1]; 30 minutes) did it give?
**A.** 100%

**Q.** What about the survival ([1]; 2 hours) of the same molecule?
**A.** 20.6%

**Q.** What about the mean survival ([2]; 30 minutes) of the same molecule?
**A.** 2%

**Q.** And the mean survival ([2]; 120 minutes)?
**A.** 4.4%

**Q.** What about the “plants with decrease of viable bacteria at the inoculation point” value ([3]; 18 h after application, 4 plants) of the same molecule?
**A.** 25 % of the plants

**Q.** What about the “plants with upward and downward movement of Xylella fastidiosa” value ([3]; 31 days after application) of the same molecule?
**A.** 75 % of the plants

**Q.** What about the “plants with Xylella fastidiosa not detected in A1” value [3, 20] of the same molecule?
**A.** 25 % of plants

**Q.** What about the “plants with Xylella fastidiosa not detected in A2” value [3, 20] of the same molecule?
**A.** 25 % of plants

**Q.** What about the “plants with Xylella fastidiosa not detected in B” value [3, 20] of the same molecule?
**A.** 25 % of plants

**Q.** And the “severity of infections with respect to untreated control” value ([3]; curative trunk microinjection, product 20 and 40 μl/ml, 31 days after application)?
**A.** significantly reduced

**Q.** And the “lower progression of Xylella fastidiosa by the vascular system (qPCR)” value ([3]; product 20 μl/ml, 14 days after application)?
**A.** not observed

**Q.** And the type of effect ([4]; ampicillin 100 mg/L)?
**A.** bacteriostatic effect

**Q.** And the survival ([4]; ampicillin 100 mg/L, 30 and 120 minutes, direct suspension or dilution −1)?
**A.** no survival

**Q.** For `[H]/N=C(/N)N[C@H]1[C@H](O)[C@@H](O)[C@H](O[C@@H]2O[C@@H](C)[C@](O)(C=O)[C@H]2O[C@@H]2O[C@@H](CO)[C@H](O)[C@@H](O)[C@@H]2NC)[C@@H](N/C(N)=N\[H])[C@@H]1O` [streptomycin], which bacterial growth [5] is on record?
**A.** −

**Q.** What about the bacterial growth [6] of the same molecule?
**A.** −

**Q.** What about the mean survival [7] of the same molecule?
**A.** 0.01%

**Q.** And the survival ([7]; 2 hours)?
**A.** no survival

**Q.** And the bacterial growth [8]?
**A.** −

**Q.** And the survival [9]?
**A.** 3.06

**Q.** What about the “survival compared to the untreated control” value ([2]; streptomycin 100 mg/L) of the same molecule?
**A.** no significant differences

**Q.** What about the bacterial growth [10] of the same molecule?
**A.** −

**Q.** And the bacterial growth [11]?
**A.** −

**Q.** What about the “growth of all pathogens tested” value [12] of the same molecule?
**A.** inhibited the growth

**Q.** And the bacterial growth [13]?
**A.** −

**Q.** And the survival [14]?
**A.** significant reduction

**Q.** And the “severity of infections with respect to untreated control” value [15]?
**A.** significantly reduced

**Q.** What about the mean survival ([4]; 30 minutes) of the same molecule?
**A.** 4.4%

**Q.** And the mean survival ([4]; 120 minutes)?
**A.** 20%

**Q.** What about the survival ([16]; 30 minutes) of the same molecule?
**A.** 89.8%

**Q.** What about the survival ([16]; 120 minutes) of the same molecule?
**A.** 61.7%

**Q.** What about the bacterial growth [17] of the same molecule?
**A.** −

**Q.** What about the bacterial growth [18] of the same molecule?
**A.** −

**Q.** What about the bacterial growth [19] of the same molecule?
**A.** −
